Test results from patent US8912221B2, “Biaryl amide derivatives” (Hoffmann-La Roche Inc., priority 2010, dated 2014).

Experiments:
[1] = biological target: T1, Bradykinin-1 receptor (Homo sapiens (Human), UniProt P46663); experiment: Receptor Binding Assay; details: membranes from CHO-K1 cells overexpressing Bradykinin-1 receptor; 6 nM [3H]Kallidin (Des Arg10, Leu9); read-out: B1R Binding Ki
Protocol: Binding assays were done with membranes from CHO-K1 cells overexpressing Bradykinin-1 receptor.
For binding, Bradykinin-1 receptor antagonist compounds were added in various concentrations in 50 mM Tris pH 7.4, 5 mM MgCl2 together with 6 nM Kallidin (Des Arg^10, Leu^9), [3,4-Prolyl-3,4-^3H(N)] (PerkinElmer, 1.85-4.44 TBq/mmol) to 40 μg membrane protein containing approximately 1 fmol Bradykinin-1 receptor and incubated for 15 min at 27° C. To determine non-specific binding 10 μM Lys-(Des-Arg^9)-Bradykinin (Bachem) was added. Membranes were harvested through GF/B (glass fiber filter; PerkinElmer) plates, equilibrated with 0.5% polyethylenimine, air dried at 50° C. for 2 hr. Radioactivity was determined by counting in a topcounter (NXT Packard). Specific binding was defined as total binding minus nonspecific binding and typically represents about 90-95% of the total binding. Antagonist activity is expressed as Ki: inhibitor concentration required for 50% inhibition of specific binding corrected for the concentration of the radioligand.

[2] = biological target: T1, Bradykinin-1 receptor; experiment: Calcium Mobilization Assay; type: cell-based; details: GeneBLAzer Bradykinin (B1)-NFAT-bla CHO-K1 cells; antagonist activity, FLIPR; read-out: Ca mobilization IC50
Protocol: Calcium Mobilization Assay
GeneBLAzer® Bradykinin (B1)-NFAT-bla CHO-K1 cells (from Invitrogen) stably overexpressing the human bradykinin 1 receptor were cultured in DMEM (high glucose) supplemented with 10% dialysed FBS, 1% NEAA (non essential amino acids) 1% penicillin/streptomycin, 1% G418 and 0.1 mg/ml zeocin.
For the assay cells were grown overnight in 384-well black clear flat bottom polystyrene plates (Costar) at 37° C. at 5% CO2. After washing with DMEM, 20 mM Hepes, 2.5 mM probenecid, 0.1% BSA (DMEM assay buffer) cells were loaded with 4 μM Fluo-4 in the same DMEM assay buffer for 2 hours at 30° C. Excess dye was removed and cells were washed with DMEM assay buffer. 384-well compound plates were prepared with DMEM assay buffer/0.5% DMSO with or without various concentrations of test compounds. Usually compounds were tested for agonist and antagonist activity.
Test compounds were added to the assay plate and agonist activity was monitored as fluorescence for 80 seconds with a FLIPR (488 nm excitation; 510-570 nm emission; Molecular Devices). […] Increases in intracellular calcium are reported as maximum fluorescence after agonist exposure minus basal fluorescence before exposure. Antagonist activity is indicated as inhibitor concentration required for 50% inhibition of specific calcium increases.

T1 sequence (P46663 whole entry): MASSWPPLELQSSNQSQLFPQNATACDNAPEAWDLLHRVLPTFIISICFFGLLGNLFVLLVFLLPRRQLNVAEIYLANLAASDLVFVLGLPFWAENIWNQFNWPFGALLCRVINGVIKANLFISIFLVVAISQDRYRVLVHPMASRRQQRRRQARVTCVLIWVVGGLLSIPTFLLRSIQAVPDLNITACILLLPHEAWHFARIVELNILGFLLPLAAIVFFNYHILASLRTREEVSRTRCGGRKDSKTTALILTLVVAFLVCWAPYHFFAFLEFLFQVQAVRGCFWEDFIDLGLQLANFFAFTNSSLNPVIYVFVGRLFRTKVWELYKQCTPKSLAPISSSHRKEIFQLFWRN

| Structure (SMILES) | Ki [1] [nM] | IC50 [2] [nM] |
| --- | --- | --- |
| Cc1nnc(C(=O)NC2(C(=O)N[C@H](C)c3ncc(-c4cc(Cl)cc(Cl)c4OCC(F)F)cc3F)COC2)o1 [Example 39, 5-Methyl-[1,3,4]oxadiazole-2-carboxylic acid [3-((R)-1-{5-[3,5-dichloro-2-(2,2-difluoro-ethoxy)-phenyl]-3-fluoro-pyridin-2-yl}-ethylcarbamoyl)-oxetan-3-yl]-amide] | 8.7 | 3.9 |
| Cc1nc(-c2c(F)cc(Cl)cc2-c2cnc([C@@H](C)NC(=O)C3(NC(=O)c4ccnnc4)COC3)c(F)c2)no1 [Example 25, Pyridazine-4-carboxylic acid [3-((R)-1-{5-[5-chloro-3-fluoro-2-(5-methyl-[1,2,4]oxadiazol-3-yl)-phenyl]-3-fluoro-pyridin-2-yl}-ethylcarbamoyl)-oxetan-3-yl]-amide] | 1 | 0.4 |
| COc1ncc(C(=O)NC2(C(=O)N[C@H](C)c3ccc(-c4cc(Cl)cc(F)c4-c4noc(C)n4)cc3F)COC2)cn1 [Example 31, 2-Methoxy-pyrimidine-5-carboxylic acid (3-{(R)-1-[5′-chloro-3,3′-difluoro-2′-(5-methyl-[1,2,4]oxadiazol-3-yl)-biphenyl-4-yl]-ethylcarbamoyl}-oxetan-3-yl)-amide] | 0.6 | < 0.032 |
| COc1ncc(C(=O)NC2(C(=O)N[C@H](C)c3ncc(-c4cc(Cl)cc(Cl)c4OCC(F)F)cc3F)COC2)cn1 [Example 40, 2-Methoxy-pyrimidine-5-carboxylic acid [3-((R)-1-{5-[3,5-dichloro-2-(2,2-difluoro-ethoxy)-phenyl]-3-fluoro-pyridin-2-yl}-ethylcarbamoyl)-oxetan-3-yl]-amide] | 1.1 | 0.1 |
| Cc1nc(-c2c(F)cc(Cl)cc2-c2cnc([C@@H](C)NC(=O)C3(NC(=O)c4cccnc4)COC3)c(F)c2)no1 [Example 30, N-[3-((R)-1-{5-[5-Chloro-3-fluoro-2-(5-methyl-[1,2,4]oxadiazol-3-yl)-phenyl]-3-fluoro-pyridin-2-yl}-ethylcarbamoyl)-oxetan-3-yl]-nicotinamide] | 1.3 | 0.2 |
| COc1ncc(C(=O)NC2(C(=O)N[C@H](C)c3ncc(-c4cc(Cl)cc(F)c4-c4nnn(C)n4)cc3F)COC2)cn1 [Example 36, 2-Methoxy-pyrimidine-5-carboxylic acid [3-((R)-1-{5-[5-chloro-3-fluoro-2-(2-methyl-2H-tetrazol-5-yl)-phenyl]-3-fluoro-pyridin-2-yl}-ethylcarbamoyl)-oxetan-3-yl]-amide] | 1.2 | 0.2 |
| Cc1nc(-c2c(F)cc(Cl)cc2-c2cnc([C@@H](C)NC(=O)C3(NC(=O)c4ccno4)COC3)c(F)c2)no1 [Example 3, Isoxazole-5-carboxylic acid [3-((R)-1-{5-[5-chloro-3-fluoro-2-(5-methyl-[1,2,4]oxadiazol-3-yl)-phenyl]-3-fluoro-pyridin-2-yl}-ethylcarbamoyl)-oxetan-3-yl]-amide] | 2.4 | 0.4 |
| COC(=O)c1c(Cl)cccc1-c1ccc([C@@H](C)NC(=O)C2(NC(=O)c3cc(C)no3)COC2)c(F)c1 [Example 13, 3-Chloro-3′-fluoro-4′-[(R)-1-({3-[(3-methyl-isoxazole-5-carbonyl)-amino]-oxetane-3-carbonyl}-amino)-ethyl]-biphenyl-2-carboxylic acid methyl ester] | 1 | 0.04 |
| Cc1nc(-c2c(F)cc(Cl)cc2-c2cnc([C@@H](C)NC(=O)C3(NC(=O)c4nccn4C)COC3)c(F)c2)no1 [Example 26, 1-Methyl-1H-imidazole-2-carboxylic acid [3-((R)-1-{5-[5-chloro-3-fluoro-2-(5-methyl-[1,2,4]oxadiazol-3-yl)-phenyl]-3-fluoro-pyridin-2-yl}-ethylcarbamoyl)-oxetan-3-yl]-amide] | 503 | 490 |
| COc1ncc(C(=O)NC2(C(=O)N[C@H](C)c3ccc(-c4cc(Cl)cc(Cl)c4OCC(F)F)cc3F)COC2)cn1 [Example 35, 2-Methoxy-pyrimidine-5-carboxylic acid (3-{(R)-1-[3′,5′-dichloro-2′-(2,2-difluoro-ethoxy)-3-fluoro-biphenyl-4-yl]-ethylcarbamoyl}-oxetan-3-yl)-amide] | 3.3 | 0.3 |
| Cc1nc(-c2c(F)cc(Cl)cc2-c2cnc([C@@H](C)NC(=O)C3(NC(=O)c4cncnc4)COC3)c(F)c2)no1 [Example 5, Pyrimidine-5-carboxylic acid [3-((R)-1-{5-[5-chloro-3-fluoro-2-(5-methyl-[1,2,4]oxadiazol-3-yl)-phenyl]-3-fluoro-pyridin-2-yl}-ethylcarbamoyl)-oxetan-3-yl]-amide] | 1.1 | 0.1 |
| C[C@@H](NC(=O)C1(NC(=O)C(F)(F)F)COC1)c1ncc(-c2cc(Cl)cc(F)c2-c2nnn(C)n2)cc1F [Example 21, 3-(2,2,2-Trifluoro-acetylamino)-oxetane-3-carboxylic acid ((R)-1-{5-[5-chloro-3-fluoro-2-(2-methyl-2H-tetrazol-5-yl)-phenyl]-3-fluoro-pyridin-2-yl}-ethyl)-amide] | 4.3 | 1 |
| COc1cc(C(=O)NC2(C(=O)N[C@H](C)c3ccc(-c4cc(Cl)cc(Cl)c4OCC(F)F)cc3F)COC2)on1 [Example 37, 3-Methoxy-isoxazole-5-carboxylic acid (3-{(R)-1-[3′,5′-dichloro-2′-(2,2-difluoro-ethoxy)-3-fluoro-biphenyl-4-yl]-ethylcarbamoyl}-oxetan-3-yl)-amide] | 3.5 | 0.4 |
| Cc1nc(-c2c(F)cc(Cl)cc2-c2cnc([C@@H](C)NC(=O)C3(NC(=O)c4cncc(N)c4)COC3)c(F)c2)no1 [Example 28, 5-Amino-N-[3-((R)-1-{5-[5-chloro-3-fluoro-2-(5-methyl-[1,2,4]oxadiazol-3-yl)-phenyl]-3-fluoro-pyridin-2-yl}-ethylcarbamoyl)-oxetan-3-yl]-nicotinamide] | 1.4 | 0.1 |
| COC(=O)c1c(Cl)cccc1-c1ccc([C@@H](C)NC(=O)C2(NC(=O)c3cncnc3)COC2)c(F)c1 [Example 7, 3-Chloro-3′-fluoro-4′-[(R)-1-({3-[(pyrimidine-5-carbonyl)-amino]-oxetane-3-carbonyl}-amino)-ethyl]-biphenyl-2-carboxylic acid methyl ester] | 1.6 | 0.1 |
| Cc1cc(C(=O)NC2(C(=O)N[C@H](C)c3ncc(-c4cc(Cl)cc(F)c4-c4noc(C)n4)cc3F)COC2)on1 [Example 4, 3-Methyl-isoxazole-5-carboxylic acid [3-((R)-1-{5-[5-chloro-3-fluoro-2-(5-methyl-[1,2,4]oxadiazol-3-yl)-phenyl]-3-fluoro-pyridin-2-yl}-ethylcarbamoyl)-oxetan-3-yl]-amide] | 2.5 | 0.2 |
| COC(=O)c1c(Cl)cccc1-c1ccc([C@@H](C)NC(=O)C2(NC(=O)C(F)(F)F)COC2)c(F)c1 [Example 6, 3-Chloro-3′-fluoro-4′-((R)-1-{[3-(2,2,2-trifluoro-acetylamino)-oxetane-3-carbonyl]-amino}-ethyl)-biphenyl-2-carboxylic acid methyl ester] | 6.5 | 2.2 |
